According to ChEMBL document CHEMBL6109078, “Pyrylium derivatives as outer membrane permeabilizers against MDR gram-negative bacteria via multi-target mode of action” (Eur J Med Chem, 2025):
≈ marks a conversion by molar mass, not a printed value.

Columns and labels:
Format in all cases: functional
[1] = system: Klebsiella pneumoniae; experiment: Antibacterial activity against Klebsiella pneumoniae BAA ATCC 1706 assessed as inhibition of bacterial growth by CLSI protocol based method
[2] = system: Klebsiella pneumoniae; experiment: Antibacterial activity against Klebsiella pneumoniae ATCC 700603 assessed as inhibition of bacterial growth by CLSI protocol based method
[3] = system: Acinetobacter baumannii; experiment: Antibacterial activity against Acinetobacter baumannii ATCC 19606 assessed as inhibition of bacterial growth by CLSI protocol based method
[4] = system: Pseudomonas aeruginosa; experiment: Antibacterial activity Pseudomonas aeruginosa ATCC 27853 assessed as inhibition of bacterial growth by CLSI protocol based method
[5] = system: Escherichia coli; experiment: Antibacterial activity against ESBL positive Escherichia coli ATCC 35218 assessed as inhibition of bacterial growth by CLSI protocol based method
[6] = system: Escherichia coli; experiment: Antibacterial activity against Escherichia coli ATCC 25922 assessed as inhibition of bacterial growth by CLSI protocol based method
[7] = system: Pseudomonas aeruginosa; experiment: Antibacterial activity Pseudomonas aeruginosa PAO1 assessed as inhibition of bacterial growth by CLSI protocol based method
[8] = system: Acinetobacter baumannii; experiment: Antibacterial activity against multi-drug resistant Acinetobacter baumannii clinical isolate 2 assessed as inhibition of bacterial growth by CLSI protocol based method
[9] = system: Acinetobacter baumannii; experiment: Antibacterial activity against multi-drug resistant Acinetobacter baumannii clinical isolate 1 assessed as inhibition of bacterial growth by CLSI protocol based method
[10] = system: Acinetobacter baumannii; experiment: Antibacterial activity against multi-drug resistant Acinetobacter baumannii clinical isolate 43 assessed as inhibition of bacterial growth by CLSI protocol based method
[11] = system: Acinetobacter baumannii; experiment: Antibacterial activity against multi-drug resistant Acinetobacter baumannii clinical isolate 10 assessed as inhibition of bacterial growth by CLSI protocol based method
[12] = system: Acinetobacter baumannii; experiment: Antibacterial activity against multi-drug resistant Acinetobacter baumannii clinical isolate 4 assessed as inhibition of bacterial growth by CLSI protocol based method
[13] = system: Acinetobacter baumannii; experiment: Antibacterial activity against multi-drug resistant Acinetobacter baumannii clinical isolate 5 assessed as inhibition of bacterial growth by CLSI protocol based method
[14] = system: Acinetobacter baumannii; experiment: Antibacterial activity against multi-drug resistant Acinetobacter baumannii clinical isolate 51 assessed as inhibition of bacterial growth by CLSI protocol based method
[15] = system: Acinetobacter baumannii; experiment: Antibacterial activity against multi-drug resistant Acinetobacter baumannii clinical isolate 14 assessed as inhibition of bacterial growth by CLSI protocol based method
[16] = system: Escherichia coli; experiment: Antibacterial activity against multi-drug resistant Escherichia coli clinical isolate 1 assessed as inhibition of bacterial growth by CLSI protocol based method
[17] = system: Escherichia coli; experiment: Antibacterial activity against Escherichia coli CG-4 expressing MCR-1 and NDM-1 assessed as inhibition of bacterial growth by CLSI protocol based method

Row | SMILES | MIC [1] [µg/mL] | MIC [2] [µg/mL] | MIC [3] [µg/mL] | MIC [4] [µg/mL] | MIC [5] [µg/mL] | MIC [6] [µg/mL] | MIC [7] [µg/mL] | MIC [8] [µg/mL] | MIC [9] [µg/mL] | MIC [10] [µg/mL] | MIC [11] [µg/mL] | MIC [12] [µg/mL] | MIC [13] [µg/mL] | MIC [14] [µg/mL] | MIC [15] [µg/mL] | MIC [16] [µg/mL] | MIC [17] [µg/mL]
1 | CC(C)(C)c1cc(/C=C/c2ccc(N3CCOCC3)cc2)cc(C(C)(C)C)[o+]1.O=S(=O)([O-])C(F)(F)F | > 100 | > 100 | > 100 | > 100 | > 100 | > 100 | > 100 |  |  |  |  |  |  |  |  |  | 
2 | Cn1c(=O)n(C)c2cc(/C=C/c3cc(C(C)(C)C)[o+]c(C(C)(C)C)c3)ccc21.O=S(=O)([O-])C(F)(F)F | > 100 | > 100 | > 100 | > 100 | > 100 | > 100 | > 100 |  |  |  |  |  |  |  |  |  | 
3 | CC(C)(C)c1cc(/C=C/c2ccc(N(c3ccccc3)c3ccccc3)cc2)cc(C(C)(C)C)[o+]1.O=S(=O)([O-])C(F)(F)F | > 100 | > 100 | > 100 | > 100 | > 100 | > 100 | > 100 |  |  |  |  |  |  |  |  |  | 
4 | CC(C)Oc1ccc(/C=C/c2cc(C(C)(C)C)[o+]c(C(C)(C)C)c2)cc1.O=S(=O)([O-])C(F)(F)F | > 100 | > 100 | > 100 | > 100 | > 100 | > 100 | > 100 |  |  |  |  |  |  |  |  |  | 
5 | CNC(C)[C@@H]1CC[C@@H](N)[C@@H](O[C@H]2[C@H](O)[C@@H](O[C@H]3OC[C@](C)(O)[C@H](NC)[C@H]3O)[C@H](N)C[C@@H]2N)O1.CN[C@@H]1[C@@H](O)[C@@H](O[C@@H]2[C@@H](O)[C@H](O[C@H]3O[C@H](C(C)N)CC[C@H]3N)[C@@H](N)C[C@H]2N)OC[C@]1(C)O.CN[C@@H]1[C@@H](O)[C@@H](O[C@@H]2[C@@H](O)[C@H](O[C@H]3O[C@H](CN)CC[C@H]3N)[C@@H](N)C[C@H]2N)OC[C@]1(C)O (stereo not given in full) | 1.56 | 6.25 | 0.78 | 0.78 |  |  | 0.2 | > 100 | > 100 | > 100 | > 100 | > 100 | > 100 | > 100 | > 100 |  | 
6 | CC(C)(C)c1cc(NC(=O)/C=C/C=C/c2ccccc2Cl)cc(C(C)(C)C)c1 | > 100 | > 100 | > 100 | > 100 | > 100 | > 100 | > 100 |  |  |  |  |  |  |  |  |  | 
7 | COc1ccc(/C=C/c2cc(C(C)(C)C)[o+]c(C(C)(C)C)c2)c(Cl)c1.O=S(=O)([O-])C(F)(F)F | > 100 | > 100 | > 100 | > 100 | > 100 | > 100 | > 100 |  |  |  |  |  |  |  |  |  | 
8 | CN(CCCl)c1ccc(/C=C/c2cc(C(C)(C)C)[o+]c(C(C)(C)C)c2)cc1.O=S(=O)([O-])C(F)(F)F | > 100 | > 100 | > 100 | > 100 | > 100 | > 100 | > 100 |  |  |  |  |  |  |  |  |  | 
9 | CCOc1ccc(/C=C/c2cc(C(C)(C)C)[o+]c(C(C)(C)C)c2)cc1OC.O=S(=O)([O-])C(F)(F)F | > 100 | > 100 | > 100 | > 100 | > 100 | > 100 | > 100 |  |  |  |  |  |  |  |  |  | 
10 | CN(CCC#N)c1ccc(/C=C/c2cc(C(C)(C)C)[o+]c(C(C)(C)C)c2)cc1.O=S(=O)([O-])C(F)(F)F | > 100 | > 100 | > 100 | > 100 | > 100 | > 100 | > 100 |  |  |  |  |  |  |  |  |  | 
11 | CCCCN(CCCC)c1ccc(/C=C/c2cc(C(C)(C)C)[o+]c(C(C)(C)C)c2)cc1.O=S(=O)([O-])C(F)(F)F | > 100 | > 100 | > 100 | > 100 | > 100 | > 100 | > 100 |  |  |  |  |  |  |  |  |  | 
12 | CC(C)(C)c1cc(NC(=O)/C=C/c2cc3ccccc3o2)cc(C(C)(C)C)c1 | > 100 | > 100 | > 100 | > 100 | > 100 | > 100 | > 100 |  |  |  |  |  |  |  |  |  | 
13 | CCN(CCCl)c1ccc(/C=C/c2cc(C(C)(C)C)[o+]c(C(C)(C)C)c2)cc1.O=S(=O)([O-])C(F)(F)F | > 100 | > 100 | > 100 | > 100 | > 100 | > 100 | > 100 |  |  |  |  |  |  |  |  |  | 
14 | CC(C)(C)c1cc(/C=C/c2ccc(N(CCCl)CCCl)cc2)cc(C(C)(C)C)[o+]1.O=S(=O)([O-])C(F)(F)F | > 100 | > 100 | > 100 | > 100 | > 100 | > 100 | > 100 |  |  |  |  |  |  |  |  |  | 
15 | CC(=O)OCCN(CCOC(C)=O)c1ccc(/C=C/c2cc(C(C)(C)C)[o+]c(C(C)(C)C)c2)cc1.O=S(=O)([O-])C(F)(F)F | > 100 | > 100 | > 100 | > 100 | > 100 | > 100 | > 100 |  |  |  |  |  |  |  |  |  | 
16 | CC(C)(C)c1cc(/C=C/c2ccc(N3CCCCC3)cc2)cc(C(C)(C)C)[o+]1.O=S(=O)([O-])C(F)(F)F | > 100 | > 100 | 50 | > 100 | > 100 | > 100 | > 100 |  |  |  |  |  |  |  |  |  | 
17 | NCC[C@H](O)C(=O)N[C@@H]1C[C@H](N)[C@@H](O[C@H]2O[C@H](CN)[C@@H](O)[C@H](O)[C@H]2O)[C@H](O)[C@H]1O[C@H]1O[C@H](CO)[C@@H](O)[C@H](N)[C@H]1O [AMIKACIN] | 50 (≈ 85.4 µM) | 0.78 (≈ 1.33 µM) | 0.78 (≈ 1.33 µM) | 0.78 (≈ 1.33 µM) | 1.56 (≈ 2.66 µM) | 6.25 (≈ 10.7 µM) | 0.2 (≈ 0.342 µM) | > 100 | > 100 | > 100 | > 100 | > 100 | > 100 | > 100 | 50 (≈ 85.4 µM) | > 100 | 100 (≈ 171 µM)
18 | CN(C)c1ccc(/C=C/C=C/c2cc(C(C)(C)C)[o+]c(C(C)(C)C)c2)cc1.O=S(=O)([O-])C(F)(F)F | > 100 | > 100 | > 100 | > 100 | > 100 | > 100 | > 100 |  |  |  |  |  |  |  |  |  | 
19 | CC(C)(C)c1cc(NC(=O)/C=C/C=C/c2ccccc2)cc(C(C)(C)C)c1 | > 100 | > 100 | > 100 | > 100 | > 100 | > 100 | > 100 |  |  |  |  |  |  |  |  |  | 
20 | CCCN(CCC)c1ccc(/C=C/c2cc(C(C)(C)C)[o+]c(C(C)(C)C)c2)cc1.O=S(=O)([O-])C(F)(F)F | > 100 | > 100 | > 100 | > 100 | > 100 | > 100 | > 100 |  |  |  |  |  |  |  |  |  | 
21 | CC(C)(C)c1cc(/C=C/c2ccc3c(c2)CCO3)cc(C(C)(C)C)[o+]1.O=S(=O)([O-])C(F)(F)F | > 100 | > 100 | > 100 | > 100 | > 100 | > 100 | > 100 |  |  |  |  |  |  |  |  |  | 
22 | CCn1c2ccccc2c2cc(/C=C/c3cc(C(C)(C)C)[o+]c(C(C)(C)C)c3)ccc21.O=S(=O)([O-])C(F)(F)F | > 100 | > 100 | > 100 | > 100 | > 100 | > 100 | > 100 |  |  |  |  |  |  |  |  |  | 
